Measurements reported in PubChem BioAssay AID179 (DTP/NCI, 2004).
Several values for one entry are separate records, joined by “and”; a condition that tells them apart may be missing. Identical values can stand only once. Activity calls are given as the source filed them.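 The calls were made as follows: active = compounds giving half or more protection of infected cells from virus-caused growth loss, again on retest; inactive = the rest.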

Tested on: CEM cells HIV-1 protection, formazan growth assay
Assay: NCI AIDS Antiviral Assay
Details: for IC50: measured here: growth of uninfected CEM cells
In short: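 Human CEM cells, uninfected and HIV-1-infected, exposed to five drug concentrations; growth measured by soluble formazan assay and scored as percent protection from infection, with protecting compounds retested.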

Compound COC(=O)/C=C1\C(=O)N(C(C)=O)c2ccccc21 has an EC50 greater than 200 µM and an IC50 of 3.31 µM.
For Cc1c2ccnc(C(N)=O)c2c(C)c2c1[nH]c1ccccc12, the outcome was “inactive”.
In the case of CC(OC1CC(=O)CC2C(=O)C=CC(=O)C12)c1ccccc1 (stereo not given), the EC50 is reported as greater than 603 µM and the IC50 is reported as 3.31 µM.
In the case of CCCCCCCCCCCCCCCCc1c(C(=O)OC)[nH]c(=S)[nH]c1=O, the EC50 is reported as greater than 3.55 µM and the IC50 is reported as greater than 3.55 µM.
Work on Cc1cc2c(c(=O)[nH]1)C(=O)NC2=O yielded an EC50 greater than 813 µM and an IC50 of 468 µM.
O=C1OC(c2ccccc2)=N/C1=C/c1ccc2c(c1)OCO2 gave an EC50 greater than 24.5 µM and an IC50 greater than 24.5 µM.
O=C(O)CC/C(=N\Nc1nsc2ccccc12)c1ccc(Cl)cc1 showed an EC50 greater than 10.5 µM and an IC50 of 6.76 µM.
COC(=O)/C(=C/c1ccc(OC)cc1)C(C(=O)O)=C1CCCC1 gave an EC50 greater than 158 µM.
C=CCNC(=S)NC=C(C(N)=O)C(N)=O showed an EC50 greater than 200 µM and an IC50 greater than 200 µM.
Work on Cc1cc(S(=O)(=O)Nc2n[nH]c(N)n2)c(SCC(=O)O)cc1Cl yielded an EC50 greater than 200 µM and an IC50 greater than 200 µM.
In the case of Clc1ccc(SCCSCCCCCCCCCCSCCSc2ccc(Cl)cc2)cc1, the EC50 is reported as greater than 9.55 µM and the IC50 is reported as greater than 9.55 µM.
Work on O=C(c1ccccc1)c1nc2ccc(Cl)cc2c2c1Cc1ccccc1-2 yielded an EC50 greater than 2.95 µM and an IC50 greater than 2.95 µM.
CN(C)CCCCN1c2ccccc2Sc2cc(N=[N+]=[N-])ccc21 gave an EC50 greater than 200 µM and an IC50 of 2.45 µM.
Work on CN(O)C(=O)c1ccccc1 yielded an EC50 greater than 1660 µM and an IC50 of 1380 µM.
Work on CCCNC(=O)c1nc(SC)sc1NC(=O)c1ccc(OC)cc1 yielded an EC50 greater than 200 µM and an IC50 greater than 200 µM.
CN1C(=O)C(CCO)(C(C)(C)C)c2ccccc21 (stereo not given) showed an EC50 greater than 200 µM and an IC50 greater than 200 µM.
With COc1c2c(cc3c1C1(O)Cc4ccc5c(c4C[N+]1(C)CC3)OCO5)OCO2 (stereo not given) the EC50 was greater than 61.7 µM and the IC50 was greater than 61.7 µM.
COC(=O)C1=C(C)NC2=C(C(=O)CCC2)C1CCS(C)=O (stereo not given) showed an EC50 greater than 200 µM and an IC50 greater than 200 µM.
With Oc1ccc(SCc2cc(O)ccc2O)cc1 the EC50 was greater than 200 µM and the IC50 was 7.08 µM.
Compound C=CC(OCC)(OCC)OCC has an EC50 greater than 1450 µM and an IC50 greater than 1450 µM.
For COc1ccc(-c2nc(SC)n(C3OC(COC(C)=O)C(OC(C)=O)C(OC(C)=O)C3OC(C)=O)c(=O)c2C#N)cc1 (stereo not given), the EC50 was greater than 200 µM and the IC50 was 41.7 µM and 46.8 µM.
Work on COc1cc(C2c3cc4c(c(O)c3C(=O)C3CCC(=O)N32)OCO4)cc(OC)c1OC (stereo not given) yielded an EC50 greater than 200 µM and an IC50 of 20.9 µM.
C/C=C/CC(C)C(OS(=O)(=O)O)C1C(=O)NC(CC)C(=O)N(C)CC(=O)N(C)C(CC(C)C)C(=O)NC(C(C)C)C(=O)N(C)C(CC(C)C)C(=O)NC(C)C(=O)NC(C)C(=O)N(C)C(CC(C)C)C(=O)N(C)C(CC(C)C)C(=O)N(C)C(C(C)C)C(=O)N1C (stereo not given) was tested, and the EC50 was 0.661 µM and the IC50 was 6.61 µM.
For CCCC1=C(CC)C(C(=O)Nc2c(C)cccc2C)=NC(S)N1 (stereo not given), the EC50 was greater than 107 µM and the IC50 was greater than 107 µM.
O=c1oc2cc(O)ccc2c(O)c1C(c1ccccc1F)c1c(O)c2ccc(O)cc2oc1=O was tested, and the outcome was “inactive”.
Cc1cc(C)c(N)c(CO)c1 was tested, and the EC50 was greater than 200 µM and the IC50 was > 200 µM and 107 µM.
Compound CN(C)CCC(=O)N1CCc2c([nH]c3ccccc23)C1c1cccnc1 (stereo not given) has an EC50 greater than 372 µM and an IC50 greater than 372 µM.
For CCOP(=O)(O)C1C(CO)OC(n2ccc(=O)[nH]c2=O)C1O (stereo not given), the EC50 was greater than 200 µM and the IC50 was greater than 200 µM.
Compound Oc1ccccc1C1SC(c2ccccc2O)SC(c2ccccc2O)S1 (stereo not given) has an EC50 greater than 200 µM and an IC50 of 11.5 µM.
CN(C)C(=C1c2cc([N+](=O)[O-])ccc2-c2ccc([N+](=O)[O-])cc21)N(C)C showed an EC50 greater than 200 µM and an IC50 of 10.7 µM.
With COC(=O)c1ccc2n1C1CC3CC(CC2C3)C1 the EC50 was greater than 200 µM and the IC50 was 87.1 µM.
Work on COc1ccc(C(=O)CC(=O)c2ccc3ccccc3n2)c(O)c1OC yielded an EC50 greater than 200 µM and an IC50 of 12.9 µM.
Compound CC1CCC2(CC1)CC(=O)N(N1CCOCC1)C(=O)C2 has an EC50 greater than 200 µM and an IC50 greater than 200 µM.
Compound NC(Cc1ccc(CP(=O)(O)O)cc1)C(=O)O (stereo not given) has an EC50 greater than 200 µM and an IC50 greater than 200 µM.
In the case of CCCCCCCCCCCCC1=C(OC)C(=O)c2cccnc2C1=O, the outcome is reported as “inactive”.
Work on CC(C)N=c1cc2n(-c3ccc(Cl)cc3)c3ccccc3nc-2cc1Nc1ccc(Cl)cc1 yielded an EC50 greater than 100 µM and an IC50 of 9.12 µM.
In the case of CCOC(=O)C1(C)CCc2sc(N)c(C#N)c21 (stereo not given), the EC50 is reported as 83.2 µM and the IC50 is reported as 158 µM.
With O=C1OCN(c2ccccc2)C12CCN(Cc1ccccc1)CC2 the EC50 was greater than 200 µM and the IC50 was 28.8 µM.
In the case of O=[N+]([O-])c1ccc(S(=O)(=O)c2ccccc2)c([N+](=O)[O-])c1, the outcome is reported as “inactive”.
CN(C)S(=O)(=O)N1C(=O)c2ccccc2C1=O was tested, and the EC50 was greater than 102 µM and the IC50 was greater than 102 µM.
Compound COc1ccc(C2=NNC(=O)C2(C)Br)cc1 (stereo not given) has an EC50 greater than 200 µM and an IC50 of 42.7 µM.
CCN(CC)CCn1nc(N)c2nc3ccccc3nc21 gave an EC50 greater than 200 µM and an IC50 of 107 µM.
Compound O=C(O)C1(CC(CCCN2CCCCC2)c2ccccc2)CCCC1 (stereo not given) has an EC50 greater than 200 µM and an IC50 of 191 µM.
In the case of O=[N+]([O-])c1cccc(S(=O)(=O)c2ccc(F)c([N+](=O)[O-])c2)c1, the EC50 is reported as greater than 200 µM and the IC50 is reported as 0.501 µM.
COC(=O)c1ccccc1SSCCN was tested, and the EC50 was greater than 200 µM and the IC50 was 19.1 µM.
CC1=NN(C(=O)Cc2ccccc2)C(=O)/C1=C\c1ccco1 gave an EC50 greater than 64.6 µM and an IC50 greater than 64.6 µM.
For O=C(O)c1ccccc1-c1c2ccc(=O)c(Br)c-2oc2c(Br)c(O)ccc12, the EC50 was greater than 200 µM and the IC50 was 37.2 µM.
Cc1cc(/C=C2/OC(=O)c3ccccc32)cc(C)c1O showed an EC50 greater than 100 µM and an IC50 greater than 100 µM.
CCOC(=O)c1c2ccccc2n2c(=O)n(C)nnc12 showed an EC50 greater than 200 µM and an IC50 greater than 200 µM.
Compound CC(C)CCCC(C)C1CCC2C3CCC4CC5(CCC4(C)C3CCC12C)NCCCS5 (stereo not given) has an EC50 greater than 1.58 µM and an IC50 greater than 1.58 µM.
COc1c(Cl)nc2ccccc2c1N=[N+]=[N-] showed an EC50 greater than 200 µM and an IC50 of 135 µM.
Work on CCOC(=O)CC1CCN(C(=O)c2ccccc2)C2Cc3c([nH]c4ccccc34)C12C[N+](=O)[O-] (stereo not given) yielded an EC50 greater than 200 µM and an IC50 of 85.1 µM.
With CC(C)(O)CCC(=O)[C@](C)(O)[C@H]1[C@H](O)C[C@@]2(C)[C@@H]3CC=C4[C@@H](C[C@@H](O)[C@@H](O)C4(C)C)[C@]3(C)C(=O)C[C@]12C the EC50 was greater than 200 µM and the IC50 was greater than 200 µM.
COc1ccc(C2Oc3ccc(Cl)cc3C=C2[N+](=O)[O-])cc1 (stereo not given) gave an EC50 greater than 200 µM and an IC50 of 0.447 µM.
With COC1/C=C/OC2(C)Oc3c(C)c(O)c4c(O)c(c(/C=N/n5cnc6c(ncn6C6OC(CO)C(O)C6O)c5=O)c(O)c4c3C2=O)NC(=O)/C(C)=C\C=C\C(C)C(O)C(C)C(O)C(C)C(OC(C)=O)C1C (stereo not given) the EC50 was greater than 200 µM and the IC50 was 66.1 µM.
With Cc1ccc(S(=O)(=O)C2CC2(Cl)Cl)cc1 (stereo not given) the outcome was “inactive”.
Compound CC#CCOC(=O)c1ccccc1OC(C)=O has an EC50 greater than 200 µM and an IC50 greater than 200 µM.
With COc1ccc(O[C@H](CO)C[C@@H]2COC(C)(C)O2)cc1 the EC50 was greater than 200 µM and the IC50 was greater than 200 µM.
COc1c(C=O)c2c(c(OC)c1OC)-c1ccc(OC)c(=O)cc1[C@@H](NC(C)=O)CC2 gave an EC50 greater than 0.2 µM and an IC50 of 0.011 µM.
CC(=O)OCC1OC(OC(C)=O)C(NC#N)C(OC(C)=O)C1OC(C)=O (stereo not given) showed an EC50 greater than 676 µM and an IC50 of 61.7 µM.
CC(=O)N[C@]1(C)CCC2C[C@H]1C(C)=NC2(C)C gave an EC50 greater than 1050 µM and an IC50 greater than 1050 µM.
c1ccc(-c2ccc(N=NN3CCCC3)cc2)cc1 gave an EC50 greater than 200 µM and an IC50 of 14.8 µM.
Cc1cc(N=C2C=C(Br)C(=O)C(Br)=C2)cc(CN(CC(=O)O)CC(=O)O)c1O showed an EC50 greater than 45.7 µM and an IC50 of 0.501 µM.
